# Experimental data published in patent publication US7875638B2, “Synthesis of epothilones, intermediates thereto, analogues and uses thereof” (Sloan-Kettering Institute for Cancer Research, priority 2002, dated 2011).
# Tests used:
# [1] = tested on: RPMI-8226 (human multiple myeloma cell line); test: Global gene expression (Affymetrix chip AU133 2.0); type: cell-based
# [2] = tested on: RPMI8226 myeloma cell lines; test: Cell cycle analysis (propidium iodide DNA staining), RPMI8226; type: cell-based, human; settings: 31.25 nM
# From the text: RPMI8226 myeloma cell lines were used.
# [3] = 6 hr gene difference, Fludelone vs dEpoB treated cells
# [4] = 18 hr gene difference, Fludelone vs dEpoB treated cells
compound,measurement,setting,value
"C/C(=C\c1csc(C)n1)[C@@H]1C/C=C(/C(F)(F)F)C/C=C/[C@H](C)[C@H](O)[C@@H](C)C(=O)C(C)(C)[C@@H](O)CC(=O)O1 [Compound 29, 26-trifluoro-trans-9,10-dehydro-12,13-desoxyepothilone B]","Fold change, IFI 27",[1]; [3],−7.46 fold
same,"Fold change, IFTM1",[1]; [3],−4.00 fold
same,"Fold change, MX1",[1]; [3],−2.00 fold
same,"Fold change in expression, AIP1",[1]; 18 h,+2.14 fold
same,"Fold change in expression, AKAP9",[1]; 18 h,+2.00 fold
same,"Fold change in expression, APBB2",[1]; 18 h,+2.00 fold
same,"Fold change in expression, APG16L",[1]; 18 h,+2.00 fold
same,"Fold change in expression, APRIN",[1]; 18 h,+2.00 fold
same,"Fold change in expression, BAX",[1]; 18 h,+2.00 fold
same,"Fold change in expression, CCL3",[1]; 18 h,+3.48 fold
same,"Fold change in expression, CCT8",[1]; 18 h,+2.30 fold
same,"Fold change in expression, CD72",[1]; 18 h,+2.30 fold
same,"Fold change in expression, CEB1",[1]; 18 h,−2.30 fold
same,"Fold change in expression, CLorf29",[1]; 18 h,−6.06 fold
same,"Fold change in expression, Cyclin E2",[1]; 18 h,−2.64 fold
same,"Fold change in expression, DNAJB1",[1]; 18 h,+2.30 fold
same,"Fold change in expression, DUSP6",[1]; 18 h,−2.14 fold
same,"Fold change in expression, EIFA1",[1]; 18 h,+2.30 fold
same,"Fold change in expression, ETS2",[1]; 18 h,+2.46 fold
same,"Fold change in expression, F11",[1]; 18 h,−4.00 fold
same,"Fold change in expression, FBXO5",[1]; 18 h,−2.30 fold
same,"Fold change in expression, FLJ20045",[1]; 18 h,−2.46 fold
same,"Fold change in expression, FLJ20130",[1]; 18 h,−5.66 fold
same,"Fold change in expression, FLJ20241",[1]; 18 h,+3.73 fold
same,"Fold change in expression, Fibrillin 2",[1]; 18 h,+12.3 fold
same,"Fold change in expression, GA17",[1]; 18 h,+2.64 fold
same,"Fold change in expression, GTF2H2",[1]; 18 h,+3.03 fold
same,"Fold change in expression, HDAC9",[1]; 18 h,−2.00 fold
same,"Fold change in expression, HNRPD",[1]; 18 h,−3.25 fold
same,"Fold change in expression, HSPA1A",[1]; 18 h,+2.14 fold
same,"Fold change in expression, HSPA1B",[1]; 18 h,+2.00 fold
same,"Fold change in expression, JUN",[1]; 18 h,+2.64 fold
same,"Fold change in expression, KIAA0191 protein",[1]; 18 h,+2.14 fold
same,"Fold change in expression, KIAA1025 protein",[1]; 18 h,+3.25 fold
same,"Fold change in expression, MADH1",[1]; 18 h,+2.00 fold
same,"Fold change in expression, MARS",[1]; 18 h,−2.00 fold
same,"Fold change in expression, NRTN",[1]; 18 h,−2.3 fold
same,"Fold change in expression, PCNX",[1]; 18 h,+3.48 fold
same,"Fold change in expression, PHC3",[1]; 18 h,+2.83 fold
same,"Fold change in expression, PKD1",[1]; 18 h,+7.46 fold
same,"Fold change in expression, POU4F1",[1]; 18 h,−2.14 fold
same,"Fold change in expression, PRKCBP1",[1]; 18 h,+2.64 fold
same,"Fold change in expression, PRKDC",[1]; 18 h,+21.11 fold
same,"Fold change in expression, REPS1",[1]; 18 h,+9.85 fold
same,"Fold change in expression, RPL23",[1]; 18 h,+2.14 fold
same,"Fold change in expression, SEC24D",[1]; 18 h,+2.64 fold
same,"Fold change in expression, SEMA3D",[1]; 18 h,+2.83 fold
same,"Fold change in expression, SERPINH1",[1]; 18 h,+2.00 fold
same,"Fold change in expression, SLC13A1",[1]; 18 h,+3.03 fold
same,"Fold change in expression, SMA3",[1]; 18 h,+2.46 fold
same,"Fold change in expression, TCS2",[1]; 18 h,+2.30 fold
same,"Fold change in expression, TMEM1",[1]; 18 h,+2.14 fold
same,"Fold change in expression, TRA2A",[1]; 18 h,+3.03 fold
same,"Fold change in expression, TRIO",[1]; 18 h,+4.29 fold
same,"Fold change in expression, VEZATIN",[1]; 18 h,+2.00 fold
same,"Fold change in expression, ZF (HCF-binding transcription factor)",[1]; 18 h,−6.50 fold
same,"Fold change in expression, ZFY",[1]; 18 h,+2.14 fold
same,"Fold change, CEB1",[1]; 18 h,−2.00 fold
same,"Fold change, DUSP4",[1]; 18 h,−2.14 fold
same,"Fold change, HMT-1",[1]; 18 h,+11.3 fold
same,"Fold change, IFIT1",[1]; 18 h,−2.00 fold
same,"Fold change, OAS2",[1]; 18 h,−2.00 fold
same,"Fold change, PLSCR1",[1]; 18 h,−2.00 fold
same,"Fold change, PPAP2C",[1]; 18 h,−2.14 fold
same,"Fold change, TRIM22",[1]; 18 h,−2.00 fold
same,"Fold change, GIP3",[1]; [4],−5.28 fold
same,"Fold change, IFI 27",[1]; [4],−5.28 fold
same,"Fold change, IFITM1",[1]; [4],−3.25 fold
same,"Fold change, MX1",[1]; [4],−2.30 fold
same,"Fold change in expression, G1P3","[1]; 18 hrs, ×10 IC50 dose, vs control",−3.73 fold
same,Cell cycle arrest,[2],absolutely blocked cell cycle at G2M phase
